Consider one compound from patent publication US11834451B2 (priority 2021, dated 2023).

The test system of data set [1] is EV-D68. Kind of data set: microbe, parasite or virus in culture. Type of data set: cell-based, enterovirus D68 (EV-D68). The conditions noted are these: Enterovirus D, EVD68, RD.
The test system of data set [2] is EV-A71. Put plainly: microbe, parasite or virus in culture. It is filed as cell-based, enterovirus A71 (EV-A71). The conditions noted are these: Enterovirus A, EVA71, RD.
The subject of data set [3] is CVB3 Nancy virus. Put plainly: microbe, parasite or virus in culture. Type of data set: cell-based, coxsackievirus B3 (CVB3). The conditions noted are these: Enterovirus B, CVB3, Vero, read-out: EC50, Anti-CVB3 in Vero cells.
Data set [4] has as its system EV-A71 Tainan/4643/1998 2C protein. It is filed as binding.
Data set [5] addresses CVB3 Nancy 2C protein (Coxsackievirus B3, UniProt P03313). Type of data set: binding.
The subject of data set [6] is EV-D68, EV-A71, and CVB3. Kind of data set: organism not typed. Type of data set: cell-based.
Data set [7] can be described thus: in vitro. The conditions noted are these: human.

The structures appear in SMILES notation. Where two headings read alike, the source gives them in different places.

CVB3 Nancy 2C protein, sequence (P03313 1101-1429 limits assumed): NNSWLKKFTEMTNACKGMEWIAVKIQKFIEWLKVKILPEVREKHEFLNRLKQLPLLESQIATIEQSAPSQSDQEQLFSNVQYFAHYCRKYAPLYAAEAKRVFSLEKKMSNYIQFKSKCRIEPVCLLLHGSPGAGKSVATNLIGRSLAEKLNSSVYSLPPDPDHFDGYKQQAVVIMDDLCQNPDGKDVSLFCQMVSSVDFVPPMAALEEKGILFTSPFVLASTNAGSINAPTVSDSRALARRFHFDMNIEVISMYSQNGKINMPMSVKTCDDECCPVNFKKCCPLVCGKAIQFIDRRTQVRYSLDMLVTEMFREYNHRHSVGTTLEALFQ

Take `CC(C)n1ncc2c(C(=O)NCCN(C)C)cc(C3CC3)nc21` [Compound 7d, 6-cyclopropyl-N-[2-(dimethylamino)ethyl]-1-(propan-2-yl)-1H-pyrazolo[3,4-b]pyridine-4-carboxamide]: the EC50 in data set [1] (read-out: EC50, Anti-EV-D68 US/KY/14-18953 in RD cells) came out at 100 nM; in data set [1] (read-out: EC50, EV-D68 US/IL/14-18952 (Clade B2)), 40 nM; in data set [1] (read-out: EC50, EV-D68 US/IL/14-18956 (Clade B2)), 40 nM; in data set [1] (read-out: EC50, EV-D68 US/KY/14-18953 (Clade D)) it was 100 nM; in data set [1] (read-out: EC50, EV-D68 US/MO/14-18947 (Clade B1)) it was 100 nM; in data set [1] (read-out: EC50, EV-D68 US/MO/14-18949 (Clade B1)), 100 nM. Moreover, the EC50 is 800 nM in data set [2] (read-out: EC50, Anti-EV-A71 Tainan/4643/1998 in RD cells); 100 nM in data set [2] (read-out: EC50, EV-A71 A71 MP4); 100 nM in data set [2] (read-out: EC50, EV-A71 Tainan/4643/1998); 60 nM in data set [2] (read-out: EC50, EV-A71 USA/CT/2016-19519); 200 nM in data set [3]; 40 to 100 nM in data set [6] (RD, read-out: EC50 values range against all EV-D68 and EV-A71 strains tested). The “binding to EV-A71 2C protein” value in data set [4] is recorded as “dose-response binding”. Also, the “binding to CVB3 2C protein” value in data set [5] is given as “dose-response binding”. Also, the “EC50 values in words (summary across viruses)” value in data set [6] is listed as “nanomolar range”. The CC50 in data set [7] (CC50 (EV-A71 Tainan/4643/1998)), in data set [7] (CC50 (EV-A71 USA/CT/2016-19519)), in data set [7] (CC50 (EV-D68 US/IL/14-18952 row group)), in data set [7] (CC50 (EV-D68 US/IL/14-18956 row group)), in data set [7] (CC50 (EV-D68 US/KY/14-18953 row group)) and in data set [7] (CC50 (EV-D68 US/MO/14-18947 row group)) was 200000 nM throughout. Further, the CC50 is 200000 nM in data set [7] (CC50 (EV-D68 US/MO/14-18949 row group)); 200000 nM in data set [7] (CC50, in RD cells (Anti-EV-A71)); 200000 nM in data set [7] (CC50, in RD cells (Anti-EV-D68)).
